Measured values: US7358268B2, “Imidazole derivatives as factor Xa inhibitors” (Sanofi-Aventis Deutschland GmbH, priority 2002, dated 2008)

Each molecule was assayed against T1, human factor Xa (Homo sapiens, UniProt P00742) (assay: Factor Xa assay (chromogenic, purified enzyme)). Details: inhibition constant for factor Xa; chromogenic substrate S-2765 140 μM, enzyme 0.5 nM, 25° C., pH 7.8; Ki calculated from IC50 (Ki=IC50/{1+(substrate concentration/Km)}); read-out: Ki(FXa).
T1 construct: 25 μl human factor Xa (Enzyme Research Laboratories, Inc; South Bend, Ind.) in TBS-PEG; purchased Enzyme Research Laboratories, Inc; South Bend, Ind
T1 sequence (P00742 235-488 limits assumed): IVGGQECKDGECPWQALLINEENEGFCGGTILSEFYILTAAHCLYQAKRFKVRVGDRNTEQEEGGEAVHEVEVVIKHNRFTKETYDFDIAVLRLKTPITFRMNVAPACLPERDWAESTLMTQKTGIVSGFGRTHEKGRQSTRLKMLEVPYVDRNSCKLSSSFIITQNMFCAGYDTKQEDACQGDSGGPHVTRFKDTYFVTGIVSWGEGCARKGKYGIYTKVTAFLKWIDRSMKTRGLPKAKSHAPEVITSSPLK
T1 sequence (P00742 41-179 partner limits assumed): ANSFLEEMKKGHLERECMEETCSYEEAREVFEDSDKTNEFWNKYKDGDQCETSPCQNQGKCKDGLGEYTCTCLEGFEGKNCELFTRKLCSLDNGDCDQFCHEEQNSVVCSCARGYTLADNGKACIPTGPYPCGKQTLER
Format: biochemical
Experimental: The ability of the compounds of the formula I to inhibit factor Xa or factor VIIa or other enzymes like thrombin, plasmin, or trypsin can be assessed by determining the concentration of the compound of the formula I that inhibits enzyme activity by 50%, i. e. the IC50 value, which was related to the inhibition constant Ki. Purified enzymes were used in chromogenic assays. The concentration of inhibitor that causes a 50% decrease in the rate of substrate hydrolysis was determined by linear regression after plotting the relative rates of hydrolysis (compared to the uninhibited control) versus the log of the concentration of the compound of formula I. For calculating the inhibition constant Ki, the IC50 value was corrected for competition with substrate using the formula Ki=IC50/{1+(substrate concentration/Km)} wherein Km is the Michaelis-Menten constant (Chen and Prusoff, Biochem. Pharmacol. 22 (1973), 3099-3108; I. H. Segal, Enzyme Kinetics, 1975, John Wiley & Sons, New York, 100-125; which were incorporated herein by reference). a) Factor Xa Assay
In the assay for determining the inhibition of factor Xa activity TBS-PEG buffer (50 mM Tris-HCl, pH 7.8, 200 mM NaCl, 0.05% (w/v) PEG-8000, 0.02% (w/v) NaN3) was used. The IC50 was determined by combining in appropriate wells of a Costar half-area microtiter plate 25 μl human factor Xa (Enzyme Research Laboratories, Inc.; South Bend, Ind.) in TBS-PEG; 40 μl 10% (v/v) DMSO in TBS-PEG (uninhibited control) or various concentrations of the compound to be tested diluted in 10% (v/v) DMSO in TBS-PEG; and substrate S-2765 (N(α)-benzyloxycarbonyl-D-Arg-Gly-L-Arg-p-nitroanilide; Kabi Pharmacia, Inc.; Franklin, Ohio) in TBS-PEG.
The assay was performed by pre-incubating the compound of formula I plus enzyme for 10 min. Then the assay was initiated by adding substrate to obtain a final volume of 100 μl. The initial velocity of chromogenic substrate hydrolysis was measured by the change in absorbance at 405 nm using a Bio-tek Instruments kinetic plate reader (Ceres UV900HDi) at 25° C. during the linear portion of the time course (usually 1.5 min after addition of substrate). The enzyme concentration was 0.5 nM and substrate concentration was 140 μM.
`CC(C)N1CCC(NC(=O)c2nc(C(=O)N3CC(O)C3)cn2Cc2cc(-c3ccc(Cl)s3)on2)CC1` [Example 43, 1-[5-(5-Chloro-thiophen-2-yl)-isoxazol-3-ylmethyl]-4-(3-hydroxy-azetidine-1-carbonyl)-1H-imidazole-2-carboxylic acid (1-isopropyl-piperidin-4-yl)-amide] showed a Ki of 62 nM. `COC(=O)CCc1cn(Cc2cc(-c3ccc(Cl)s3)on2)c(C(=O)NC2CCN(C(C)C)CC2)n1` [Example 49, 3-[1-[5-(5-Chloro-thiophen-2-yl)-isoxazol-3-ylmethyl]-2-(1-isopropyl-piperidin-4-ylcarbamoyl)-1H-imidazol-4-yl]-propionic acid methyl ester] showed a Ki of 37 nM. Work on `CC(C)N1CCC(NC(=O)c2cncn2Cc2cc(-c3ccc(Cl)s3)on2)CC1` [Example 1, 3-[5-(5-Chloro-thiophen-2-yl)-isoxazol-3-ylmethyl]-3H-imidazole-4-carboxylic acid (1-isopropyl-piperidin-4-yl)-amide] yielded a Ki of 65 nM. In the case of `O=C(NCC1CCN(c2ccncc2)CC1)c1nccn1Cc1cc(-c2ccc(Cl)s2)on1` [Example 63, 1-[5-(5-Chloro-thiophen-2-yl)-isoxazol-3-ylmethyl]-1H-imidazole-2-carboxylic acid (3,4,5,6-tetrahydro-2H-[1,4′]bipyridinyl-4-ylmethyl)-amide], the Ki is reported as 640 nM. `CC(C)N1CCC(NC(=O)c2cnc(-c3ccccn3)n2Cc2cc(-c3ccc(Cl)s3)on2)CC1` [Example 17, 3-[5-(5-Chloro-thiophen-2-yl)-isoxazol-3-ylmethyl]-2-pyridin-2-yl-3H-imidazole-4-carboxylic acid (1-isopropyl-piperidin-4-yl)-amide] was tested, and the Ki was 112 nM. With `CCc1nc(C)c(C(=O)NC2CCN(C(C)C)CC2)n1Cc1cc(-c2ccc(Cl)s2)on1` [Example 5, 3-[5-(5-Chloro-thiophen-2-yl)-isoxazol-3-ylmethyl]-2-ethyl-5-methyl-3H-imidazole-4-carboxylic acid (1-isopropyl-piperidin-4-yl)-amide] the Ki was 27 nM. `Cc1nc(I)n(Cc2cc(-c3ccc(Cl)s3)on2)c1C(=O)NC1CCN(C(C)C)CC1` [Example 7, 3-[5-(5-Chloro-thiophen-2-yl)-isoxazol-3-ylmethyl]-2-iodo-5-methyl-3H-imidazole-4-carboxylic acid (1-isopropyl-piperidin-4-yl)-amide] was tested, and the Ki was 1 nM. Molecule `CC(C)N1CCC(NC(=O)c2nc(C(=O)OCC(=O)OC(C)(C)C)cn2Cc2cc(-c3ccc(Cl)s3)on2)CC1` [Example 46, 1-[5-(5-Chloro-thiophen-2-yl)-isoxazol-3-ylmethyl]-2-(1-isopropyl-piperidin-4-ylcarbamoyl)-1H-imidazole-4-carboxylic acid tert-butoxycarbonylmethyl ester] has a Ki of 128 nM. `CC(C)N1CCC(NC(=O)c2cnc(C(=O)N3CCCOCC3)n2Cc2cc(-c3ccc(Cl)s3)on2)CC1` [Example 71, 3-[5-(5-Chloro-thiophen-2-yl)-isoxazol-3-ylmethyl]-2-(perhydro-1,4-oxazepine-4-carbonyl)-3H-imidazole-4-carboxylic acid (1-isopropyl-piperidin-4-yl)-amide] showed a Ki of 51 nM. `CC(C)N1CCC(NC(=O)c2nc(C(=O)NCCO)cn2Cc2cc(-c3ccc(Cl)s3)on2)CC1` [Example 47] was tested, and the Ki was 77 nM. With `Cc1nc(-c2ncc(C(=O)NC3CCN(C(C)C)CC3)n2Cc2cc(-c3ccc(Cl)s3)on2)cs1` [Example 21, 3-[5-(5-Chloro-thiophen-2-yl)-isoxazol-3-ylmethyl]-2-(2-methyl-thiazol-4-yl)-3H-imidazole-4-carboxylic acid (1-isopropyl-piperidin-4-yl)-amide] the Ki was 243 nM. `CC(C)N1CCC(NC(=O)c2c(Cl)nc(-c3ccccc3)n2Cc2cc(-c3ccc(Cl)s3)on2)CC1` [Example 3, 5-Chloro-3-[5-(5-chloro-thiophen-2-yl)-isoxazol-3-ylmethyl]-2-phenyl-3H-imidazole-4-carboxylic acid (1-isopropyl-piperidin-4-yl)-amide] showed a Ki of 7 nM.
